A short description of data set [1]: DOX probe characterization: dose-response (affinity) and kinetic response by square-wave voltammetry. The data set is classed as binding. The text has this: Aptamer probes were synthesized with the following sequences: DOX-probe: 5′-HS—(CH2)6-ACCATCTGTGTAAGGGGTAAGGGGTGGT-MB-3′ (SEQ ID NO: 1), Kanamycin-probe: 5′-HS—(CH2)6-GGGACTTGGTTTAGGTAATGAGTCCC-MB-3′ (SEQ ID NO: 2). DOX-probe is a truncated form of an anthracycline aptamer. A region of the aptamer suspected of supporting a hairpin structure was selected, with an apparent active binding site in the base. The stem was engineered to enable effective signal transduction through stabilization of the folded state. The kanamycin probe was adapted from that described in Rowe et al. Analytical chemistry 82, 7090-5 (2010). Each probe was thiolated at the 5′-end to facilitate self-assembly on the gold working electrodes, and conjugated with an MB redox label at the 3′-end to enable target binding-induced charge transfer modulation. Prior to probe immobilization, the gold electrodes were first cleaned via cyclic voltammetry, with twelve potential sweeps ranging from −0.8 to 0.9 V (with respect to the platinum reference electrode) applied at 0.1 V·s^−1 with a sample interval of 0.001 V and 10 μA sensitivity in 50 mM H2SO4. Subsequently, the chamber was flushed with DI water, followed by the addition of probe solution. The probe solution was prepared by adding 2 μL of 10 mM tris(2-carboxyethyl)phosphine (TCEP) to 1 μL of 200 μM probe stock and incubating at room temperature for 60 minutes to enable cleavage of disulphide bonds. The solution was then diluted to 2 μM in 1× saline-sodium citrate (SSC) buffer for effective self-assembly. The chip was incubated with probe solution for 1 hour at room temperature, permitting the thiolated aptamer to form a monolayer on the gold electrode surface. The chamber was then flushed with 5 mL DI water for 5 minutes, and the remaining electrode area was incubated for two hours in passivation solution, consisting of 1 μL of stock 6-mercaptohexanol diluted to 3 mM in DI water. The chamber was flushed again with DI water and filled with 1×SSC, after which the device was stored at 4° C. until use.
Electrochemical measurements were conducted with an electrochemical analyzer (730B, CH Instruments, Austin, TX). The chip was connected via 8-pin card-edge connector and subjected to SWV scans. Working electrodes were scanned in continuous succession with an average scan period of 8 seconds. To accommodate potential shifts due to the non-ideal on-chip pseudo-reference electrodes, a 400 mV potential range was scanned to reliably capture the MB redox peak. For optimal frequency determination for the KDM, frequency-sweep scans were performed from 5 Hz to 800 Hz, with amplitude of 25 mV. A custom peak-fitting script was created to fit the SWV measurements with a Gaussian curve on a hyperbolic baseline. Peak currents were then normalized to a baseline peak current to generate signal gain. Unless otherwise noted, all reported gains were obtained via KDM with the difference divided average of gains from 7.5 Hz and 75 Hz signals.
Probes were characterized in terms of affinity, specificity and kinetic response. For affinity measurements, a dose-response curve was obtained by subjecting the probe to DOX concentrations (for the DOX-probe) ranging from 50 nM to 10 μM in 1×SSC at a flow-rate of 1 mL·h^−1. At each concentration, the signal was permitted to equilibrate and then ten subsequent readings were obtained from two separate electrodes and averaged as the reported values. The same procedure was applied for specificity characterization, where DOX was injected at 1 μM while off-target reagents mitomycin-C (MTC), ifosfamide (Ifex), Mesna, dacarbazine (DTIC) or cisplatin (CDDP) were injected at 1 mM. […] Voltammograms were taken in immediate succession to provide maximal temporal resolution. Dose-response curves were obtained by fitting data to a one-site binding model, and kinetic-response curves were obtained by fitting data to a one-phase association and dissociation model. […]

Data set [2] is described as follows: Cocaine/procaine binding aptamer sensor step response to target in buffer and whole blood (SWV).
The conditions of data set [3]: biphasic, cited from earlier work.
For data set [4] the following is noted: male, Sprague-Dawley, rat, in vivo.
Description: (§1) All rats used in this work were Sprague-Dawley males from Charles River Laboratories (Hollister, CA, USA). To safely mount the device and catheters, rats were sedated throughout the duration of the experiment via isoflurane gas (1-4%) and ketamine/xylazine (56.25 mg·kg^−1 and 7.5 mg·kg^−1 respectively). Animals were placed dorsal side down on a heating pad. The right jugular vein was isolated and catheterized to provide an intravenous injection port. An initial injection of 0.41 mL heparin solution (1000 U·mL^−1 USP) was performed, followed by periodic injections of 0.1 mL every 40 minutes to prevent clot formation in the catheters. The left jugular vein was isolated and cannulated. A 0.3 mL pre-drug injection control blood sample was taken and set aside for the duration of the experiment. The end of a 10-cm length of Tygon® tubing (2.29-mm OD and 0.76-mm ID) was inserted into the cannula to connect the intravenous blood source to the blood port of the MEDIC device. […] Target concentrations were adjusted for a constant 0.3 mL injection volume, and injected via the input catheter in a 30-second bolus at >30 min intervals. Upon completion of each experiment, subjects were euthanized via intravenous Euthasol® injection. The MEDIC input tube was then redirected to the control blood to obtain post-experiment readings of zero-target blood samples.
(§2) A rat with a body surface area of 620 cm^2 was dosed with increasing DOX concentrations (0-2 mg·m^−2) over 4.5 hours (FIG. 12, Panel A).
The conditions of data set [5]: humans; cited from earlier work.
A short description of data set [6]: Continuous real-time MEDIC measurement of in vivo DOX concentration in live rats. Particulars: male, Sprague-Dawley, rat, 1 mg·m^−2, alpha-phase half-life t1/2^α.
Description: as §1, §2
For the next data set, the system named is DOX probe. Put plainly: DOX probe specificity characterization against off-target chemotherapy agents. Particulars: 1,000× greater concentrations (1 mM vs DOX 1 μM), 1×SSC. The data set is classed as binding. The text has this: Probes were characterized in terms of affinity, specificity and kinetic response. […] At each concentration, the signal was permitted to equilibrate and then ten subsequent readings were obtained from two separate electrodes and averaged as the reported values. […] Voltammograms were taken in immediate succession to provide maximal temporal resolution. Dose-response curves were obtained by fitting data to a one-site binding model, and kinetic-response curves were obtained by fitting data to a one-phase association and dissociation model.

A further data set is described as follows: in vivo. Particulars: male, Sprague-Dawley, rat, iv. As for the experimental part:
A calibration curve was obtained (FIG. 5), then doses of 32, 64 and 96 mg·kg^−1 were serially injected, followed by a baseline control.

The conditions of data set [7]: stated, not measured here; cited from earlier work.
[8] abbreviates: after a 5 minute pulse of 600 nM DOX.

{C7MB} = methylene blue on (CH2)7 linker; {C11SH} = thiol on (CH2)11 linker; {MB} = methylene blue redox label; {C6SH} = thiol on (CH2)6 linker Where only a bound is given, the exact number is not on record here.

On to “5′-HS—(CH2)6-ACCATCTGTGTAAGGGGTAAGGGGTGGT-MB-3′ (ACCATCTGTGTAAGGGGTAAGGGGTGGT; DNA, 5' {C6SH}, 3' {MB}, backbone and methylation of C not given here) [DOX probe, truncated form of an anthracycline DNA aptamer, thiolated at the 5′-end, MB redox label at the 3′-end]”, for which, in [1] (DOX pulse), the “time to reach 90% saturation” value was no more than 45 s. Further, the “time to return to 10% of baseline” value in data set [1] (after DOX pulse) is listed as no more than 100 s. For the same compound, in [1] (setting [8]), the koff amounted to 1.35 ± 0.05 min⁻¹ and the kon stood at 3.0 ± 0.35 µM⁻¹ min⁻¹. Also, in data set [1] (in buffer), the dynamic range was in the range of 0.1 to 10 µM and the “limit of detection (LOD)” value worked out at 10 nM. Also, the Kd in [1] (signal gain fitted to a Langmuir isotherm, DOX 50 nM to 10 μM in 1×SSC, read-out: apparent Kd) worked out at 824 nM.

As for “5′-HS—(CH2)11-AGACAAGGAAAATCCTTCAATGAAGTGGGTCG-(CH2)7-MB-3′ (AGACAAGGAAAATCCTTCAATGAAGTGGGTCG; DNA, 5' {C11SH}, 3' {C7MB}, backbone and methylation of C not given here) [cocaine/procaine binding aptamer, DNA aptamer thiolated on the 5′-end, methylene blue redox label at the 3′-end]”, the Kd in data set [2] is roughly 190 µM. For the same compound, the off-rate (koff) in data set [2] (128 μM target in 1×SSC buffer) is roughly 0.031 s⁻¹. In addition, the kon in data set [2] (128 μM target in 1×SSC buffer) is roughly 160 s⁻¹ M⁻¹. Besides, the signal gain was 60% in [2] (128 μM target in 1×SSC buffer, before blood exposure); roughly 20% in [2] (128 μM target in buffer after whole blood exposure); roughly 10% in data set [2] (128 μM target in whole blood, after ~1 h whole blood exposure at room temperature). Also, the “affinity for its target at 37° C.” value in [2] (37° C.) is given as “loses affinity for its target”. Further, the “performance at room temperature” value in data set [2] (room temperature) is “performs well”.

Consider `C[C@@H]1[C@H](O)[C@@H](C)/C=C/C=C/C=C/C=C/C=C/C=C/C=C/[C@H](O[C@@H]2O[C@H](C)[C@@H](O)[C@H](N)[C@@H]2O)C[C@@H]2O[C@](O)(C[C@@H](O)C[C@@H](O)[C@H](O)CC[C@@H](O)C[C@@H](O)CC(=O)O[C@H]1C)C[C@H](O)[C@H]2C(=O)O` [Amphotericin B], for which the “half-life, initial phase” value in data set [3] (initial phase) was 24 h. Further, in [3] (second phase), the “half-life, second phase” value is 15 days.

Regarding `COc1cccc2c1C(=O)c1c(O)c3c(c(O)c1C2=O)C[C@@](O)(C(=O)CO)C[C@@H]3O[C@H]1C[C@H](N)[C@H](O)[C@H](C)O1` [DOX, doxorubicin], the “Pearson correlation coefficient of t1/2^α as a function of body surface area” value in data set [4] is given as −0.73. In addition, in data set [5], the “alpha-phase plasma clearance time” value was 6 to 26 min. Further, the half-life was 10.7 ± 0.5 min in [6] (first of two injections of 1 mg·m^−2) and 10.8 ± 1 min in [6] (second of two injections of 1 mg·m^−2).

Regarding `N.N.[Cl][Pt][Cl]` [cisplatin], the “sensor response to off-target drug” value with DOX probe was “did not respond”.

As for `O=P1(NCCCl)OCCCN1CCCl` (centres unmarked) [ifosfamide], the “sensor response to off-target drug” value in the data set on DOX probe was “did not respond”.

On to `NC[C@H]1O[C@H](O[C@H]2[C@H](O)[C@@H](O[C@H]3O[C@H](CO)[C@@H](O)[C@H](N)[C@H]3O)[C@H](N)C[C@@H]2N)[C@H](O)[C@@H](O)[C@@H]1O` [kanamycin], for which the half-life is 7.2 min in the data set “in vivo” (32 mg/kg), 10 min in “in vivo” (64 mg/kg) and 9 min in “in vivo” (96 mg/kg). In data set [7], the “beta phase t1/2^β” value is 2 to 3 h.

As to `O=S(=O)(O)CCS` [mesna], the “sensor response to off-target drug” value in the data set with DOX probe is “did not respond”.

On to `CO[C@@]12[C@H](COC(N)=O)C3=C(C(=O)C(C)=C(N)C3=O)N1C[C@@H]1N[C@@H]12` [mitomycin-C], for which, in the data set on DOX probe, the “sensor response to off-target drug” value is “did not respond”.

The values above are taken from patent US12016682B2, “In-vivo monitoring of molecular targets” (The Regents of the University Of California, priority 2013, dated 2024).
